Here are results for four compounds from patent publication US12180196B2, “Azetidine-substituted pyridine and pyrazine compounds as inhibitors of cannabinoid receptor 2” (HOFFMANN-LA ROCHE INC., priority 2018, dated 2024).

Sequence of human CB2 (P34972 whole entry): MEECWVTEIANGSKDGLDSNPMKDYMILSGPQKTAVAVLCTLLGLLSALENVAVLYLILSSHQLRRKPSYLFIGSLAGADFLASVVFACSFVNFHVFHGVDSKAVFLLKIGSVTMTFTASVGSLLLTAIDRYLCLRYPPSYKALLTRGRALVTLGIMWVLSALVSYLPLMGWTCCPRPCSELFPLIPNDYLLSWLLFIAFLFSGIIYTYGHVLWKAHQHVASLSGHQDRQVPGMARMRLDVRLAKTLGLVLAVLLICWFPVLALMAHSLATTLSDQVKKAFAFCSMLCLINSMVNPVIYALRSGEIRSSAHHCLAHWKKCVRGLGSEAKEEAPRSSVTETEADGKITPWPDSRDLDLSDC

The assay has as its target human CB2 (Homo sapiens (Human), UniProt P34972). The assay can be described thus: Radioligand binding assay, human CB2 (CNR2) membranes, [3H]-CP-55,940. Particulars: HEK cell membranes, [3H]-CP-55,940 radioligand. Here is the method:
Radioligand Binding Assay
The affinity of the compounds of the invention for cannabinoid CB1 receptors was determined using recommended amounts of membrane preparations (PerkinElmer) of human embryonic kidney (HEK) cells expressing the human CNR1 or CNR2 receptors in conjunction with 1.5 or 2.6 nM [3H]-CP-55,940 (Perkin Elmer) as radioligand, respectively. Binding was performed in binding buffer (50 mM Tris, 5 mM MgCl2, 2.5 mM EDTA, and 0.5% (wt/vol) fatty acid free BSA, pH 7.4 for CB1 receptor and 50 mM Tris, 5 mM MgCl2, 2.5 mM EGTA, and 0.1% (wt/vol) fatty acid free BSA, pH 7.4 for CB2 receptor) in a total volume of 0.2 ml for 1 h at 30° C. shaking. The reaction was terminated by rapid filtration through microfiltration plates coated with 0.5% polyethylenimine (UniFilter GF/B filter plate; Packard). Bound radioactivity was analyzed for Ki using nonlinear regression analysis (Activity Base, ID Business Solution, Limited), with the Kd values for [3H]CP55,940 determined from saturation experiments. The compounds of formula (I) show an excellent affinity for the CB2 receptor.
The compounds according to formula (I) have an activity in the above assay (Ki) between 0.5 nM and 10 μM. Particular compounds of formula (I) have an activity in the above assay (Ki) between 0.5 nM and 3 μM. Other particular compounds of formula (I) have an activity in the above assay (Ki) between 0.5 nM and 100 nM.
Regarding `CCOC(=O)C(CC)(CC)NC(=O)c1ccc(N2CC(OCCCF)C2)c(OCC2CC2)n1` [Example 1, Ethyl 2-({6-(cyclopropylmethoxy)-5-[3-(3-fluoropropoxy)azetidin-1-yl]pyridine-2-carbonyl}amino)-2-ethylbutanoate], affinity was put at a Ki of 19 nM.

For the compound `CCOC(=O)C(CC)(CC)NC(=O)c1ccc(N2CC(OCCF)C2)c(OCC2CC2)n1` [Example 2, Ethyl 2-({6-(cyclopropylmethoxy)-5-[3-(2-fluoroethoxy)azetidin-1-yl]pyridine-2-carbonyl}amino)-2-ethylbutanoate], the affinity corresponds to a Ki of 5 nM. Regarding `CCOC(=O)C(CC)(CC)NC(=O)c1ccc(N2CC(F)C2)c(OCC2CC2)n1` [Example 4, Ethyl 2-{[6-(cyclopropylmethoxy)-5-(3-fluoroazetidin-1-yl)pyridine-2-carbonyl]amino}-2-ethylbutanoate], affinity was put at a Ki of 6 nM.

Regarding `NC(=O)CC1(NC(=O)c2ccc(N3CC(OCCF)C3)c(OCC3CC3)n2)COC1` [Example 5, N-[3-(2-Amino-2-oxoethyl)oxetan-3-yl]-6-(cyclopropylmethoxy)-5-[3-(2-fluoroethoxy)azetidin-1-yl]pyridine-2-carboxamide], the inhibitory constant (Ki) (usually the dissociation constant of the complex between target and ligand, obtained from inhibition or displacement) amounted to 447 nM.
